Results on 10 compounds are retold here after patent US12459951B2, “Compounds that interact with RAS superfamily proteins for treatment of cancers, inflammatory diseases, rasopathies, and fibrotic disease” (SHY Therapeutics, LLC, priority 2022, dated 2025).

The test deals with JNK phosphorylation. The test can be described thus: JNK Activation Assay (western blot), Panc-1. Conditions: at 10 μM, Panc-1 pancreatic cancer cell line; starred symbols = activation. In kind it is cell-based, human. Summed up: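 KRas G12C Panc-1 cells treated 6 h at 37 °C with compound at 10 μM (0.3% DMSO), or serial dilutions for IC50. In Method 1 cells were serum-starved overnight (0.5% FBS) then stimulated with 1.5 ng/ml EGF for 15 min; Method 2 used 10% FBS without stimulation. Phospho-JNK (Thr183/Tyr185) measured by western blot.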
`COc1cccc(-c2cn3nc(-c4nccn4C)nc(N[C@H]4C[C@H](OC)C4)c3c2-c2ccccc2)c1Cl` [Compound 32, 6-(2-Chloro-3-methoxyphenyl)-N-((1r,3r)-3-methoxycyclobutyl)-2-(1-methyl-1H-imidazol-2-yl)-5-phenylpyrrolo[2,1-f][1,2,4]triazin-4-amine]: the “% inh of JNK in Panc-1” value is given as “H (H = 100% inhibition)”.
Turning to `COc1ccc(Nc2nc(-c3nccn3C)nn3cc(-c4ccn(C(C)C)n4)c(C)c23)cn1` [Compound 71, 6-(1-Isopropyl-1H-pyrazol-3-yl)-N-(6-methoxypyridin-3-yl)-5-methyl-2-(1-methyl-1H-imidazol-2-yl)pyrrolo[2,1-f][1,2,4]triazin-4-amine], the “% inh of JNK in Panc-1” value was “H* (H* ≥ 100% activation)”.
`Cc1c(-c2ccn(C(C)C)n2)cn2nc(-c3nccn3C)nc(Nc3ccn(C)n3)c12` [Compound 61, 6-(1-Isopropyl-1H-pyrazol-3-yl)-5-methyl-2-(1-methyl-1H-imidazol-2-yl)-N-(1-methyl-1H-pyrazol-3-yl)pyrrolo[2,1-f][1,2,4]triazin-4-amine]: the “% inh of JNK in Panc-1” value was “H* (H* ≥ 100% activation)”.
`COCCNc1nc(-c2nccn2C)nn2cc(-c3ccn(C(C)C)n3)c(C(C)C)c12` [Compound 35, 5-Isopropyl-6-(1-isopropyl-1H-pyrazol-3-yl)-N-(2-methoxyethyl)-2-(1-methyl-1H-imidazol-2-yl)pyrrolo[2,1-f][1,2,4]triazin-4-amine]: the “% inh of JNK in Panc-1” value is recorded as “H* (H* ≥ 100% activation)”.
Turning to `CO[C@H]1CC[C@@H](Nc2nc(-c3ccccn3)nn3cc(-c4ccn(C(C)C)n4)c(-c4ccccc4)c23)C1` (racemic) [Compound 24, rac 6-(1-Isopropyl-1H-pyrazol-3-yl)-N-((1R,3S)-3-methoxycyclopentyl)-5-phenyl-2-(pyridin-2-yl)pyrrolo[2,1-f][1,2,4]triazin-4-amine], the “% inh of JNK in Panc-1” value is listed as “H* (H* ≥ 100% activation)”.
For the compound `COC[C@@H]1CC[C@@H]1CNc1nc(-c2ccccn2)nn2cc(-c3ccn(C(C)C)n3)c(-c3ccccc3)c12` (racemic) [Compound 26, rac 6-(1-Isopropyl-1H-pyrazol-3-yl)-N-(((1S,2R)-2-(methoxymethyl)cyclobutyl)methyl)-5-phenyl-2-(pyridin-2-yl)pyrrolo[2,1-f][1,2,4]triazin-4-amine], the “% inh of JNK in Panc-1” value is listed as “H* (H* ≥ 100% activation)”.
For the compound `COc1cccc(-c2cn3nc(-c4nccn4C)nc(N[C@@H]4CC[C@H](OC)C4)c3c2-c2ccccc2)c1Cl` (racemic) [Compound 33, rac 6-(2-Chloro-3-methoxyphenyl)-N-((1R,3S)-3-methoxycyclopentyl)-2-(1-methyl-1H-imidazol-2-yl)-5-phenylpyrrolo[2,1-f][1,2,4]triazin-4-amine], the “% inh of JNK in Panc-1” value is “G (G = 75-99% inhibition)”.
To `COc1cccc(-c2cn3nc(-c4nccn4C)nc(N[C@@H]4CC[C@@H](OC)C4)c3c2-c2ccccc2)c1F` (racemic) [Compound 43, rac 6-(2-Fluoro-3-methoxyphenyl)-N-((1R,3R)-3-methoxycyclopentyl)-2-(1-methyl-1H-imidazol-2-yl)-5-phenylpyrrolo[2,1-f][1,2,4]triazin-4-amine] belongs “H* (H* ≥ 100% activation)”.
To `COc1cccc(-c2cn3nc(-c4nccn4C)nc(N[C@H]4C[C@H](OC)C4)c3c2-c2ccccn2)c1F` [Compound 45, 6-(2-Fluoro-3-methoxyphenyl)-N-((1r,3r)-3-methoxycyclobutyl)-2-(1-methyl-1H-imidazol-2-yl)-5-(pyridin-2-yl)pyrrolo[2,1-f][1,2,4]triazin-4-amine] belongs “H* (H* ≥ 100% activation)”; to `COc1cccc(-c2cn3nc(-c4nccn4C)nc(N[C@H]4C[C@H](OC)C4)c3c2-c2ccccc2)c1F` [Compound 42, 6-(2-Fluoro-3-methoxyphenyl)-N-((1r,3r)-3-methoxycyclobutyl)-2-(1-methyl-1H-imidazol-2-yl)-5-phenylpyrrolo[2,1-f][1,2,4]triazin-4-amine], “H* (H* ≥ 100% activation)”.
